In ChEMBL document CHEMBL1125269, “Design of enzyme inhibitors using iterative protein crystallographic analysis” (J Med Chem, 1991):

How the values were obtained:
[1] = system: CCRF-CEM; assay: Inhibition of cellular growth against human (CCRF-CEM) leukemias (ATCC) deficient in thymidine kinase.
[2] = system: GC3/MTK-; assay: Inhibition of cellular growth against human adenocarcinoma (GC3/M TK-) deficient in thymidine kinase.
[3] = system: L1210; assay: Inhibition of cellular growth against mouse (L1210) deficient in thymidine kinase.
[4] = biological target: Thymidylate synthase (Escherichia coli, UniProt C3SWJ7)
Chain of Thymidylate synthase (Escherichia coli, UniProt C3SWJ7) (C3SWJ7 whole entry): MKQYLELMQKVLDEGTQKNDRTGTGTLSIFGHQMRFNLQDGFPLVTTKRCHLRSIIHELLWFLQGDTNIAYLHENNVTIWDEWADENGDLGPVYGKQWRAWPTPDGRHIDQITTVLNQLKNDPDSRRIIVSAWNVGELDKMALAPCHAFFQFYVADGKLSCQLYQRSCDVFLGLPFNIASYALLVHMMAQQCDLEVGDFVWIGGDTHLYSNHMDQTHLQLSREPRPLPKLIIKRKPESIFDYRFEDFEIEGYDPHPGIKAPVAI
Description: Inhibition of Thymidylate synthase of Escherichia coli (Ki)

[5] = biological target: Thymidylate synthase (Escherichia coli) (UniProt C3SWJ7)
Chain of Thymidylate synthase (Escherichia coli) (C3SWJ7 1-264): as the sequence (C3SWJ7 whole entry) above
Description: Inhibition of Thymidylate synthase of Escherichia coli (Kii)

[6] = biological target: Thymidylate synthase (Homo sapiens, UniProt P04818)
Chain of Thymidylate synthase (Homo sapiens, UniProt P04818) (P04818 whole entry): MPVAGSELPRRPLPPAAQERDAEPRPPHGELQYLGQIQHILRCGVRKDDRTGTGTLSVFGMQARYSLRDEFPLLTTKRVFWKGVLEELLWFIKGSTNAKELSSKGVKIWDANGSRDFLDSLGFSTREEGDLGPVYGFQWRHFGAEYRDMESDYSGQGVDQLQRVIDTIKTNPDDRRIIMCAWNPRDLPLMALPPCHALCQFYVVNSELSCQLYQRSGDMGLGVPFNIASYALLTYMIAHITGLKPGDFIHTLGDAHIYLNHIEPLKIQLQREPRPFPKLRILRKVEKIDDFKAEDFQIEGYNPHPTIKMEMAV
Description: Inhibition of human Thymidylate synthase (Ki)

[7] = system: GC3/MTK-; assay: Inhibition of cellular growth against human adenocarcinoma (GC3/M TK-) deficient in thymidine kinase
[8] = system: L1210; assay: Inhibition of cellular growth against mouse (L1210) deficient in thymidine kinase
[9] = system: CCRF-CEM; assay: Inhibition of cellular growth against human (CCRF-CEM) leukemias (ATCC) deficient in thymidine kinase

IC50 [1] [nM]	IC50 [3] [nM]	Compound	IC50 [2] [nM]	further results
1600	380	CN(Cc1ccc(S(=O)(=O)c2ccccc2)cc1)c1ccc2c3c(cccc13)C(N)=N2	4600	–
1300	300	C#CCN(Cc1ccc2nc(C)nc(O)c2c1)c1ccc(S(=O)(=O)n2ccc3ccccc32)cc1	1500	–
11000	20000	O=S(=O)(c1ccc(CN2CCCc3cc4[nH]cnc4cc32)cc1)N1CCNCC1	43000	Ki [4]: 4900 nM
43	59	C#CCN(Cc1ccc2nc(C)nc(O)c2c1)c1ccc(C(=O)NC(CCC(=O)O)C(=O)O)cc1 (centres undefined)	49	Kii [5]: 0.013 µM; Ki [6]: 8.5 nM; Ki [4]: 4.8 nM
3500	2000	C#CCN(Cc1ccc2nc(C)nc(O)c2c1)c1ccc(S(=O)(=O)c2ccccc2)c(C(F)(F)F)c1	7500	–
–	–	CN(Cc1ccc(S(=O)(=O)c2ccccc2)cc1)c1ccc2c3c(cccc13)C(=O)N2	–	IC50 [7]: > 5000 nM
–	6000	CCN(Cc1ccc(S(=O)(=O)N2CCNCC2)cc1)c1ccc2c3c(cccc13)C(=O)N2	–	–
2200	2050	Nc1nc2cc3c(cc2[nH]1)N(Cc1ccc(S(=O)(=O)N2CCNCC2)cc1)CCC3	–	IC50 [7]: > 50000 nM
8300	2300	CN(Cc1ccc(S(=O)(=O)N2CCNCC2)cc1)c1ccc2c3c(cccc13)C(=O)N2	25000	–
750	3500	C#CCN(Cc1ccc2[nH]c(N)nc(=O)c2c1)c1ccc(C(=O)NC(CCC(=O)O)C(=O)O)cc1 (centres undefined)	1400	–
–	–	C#CCN(Cc1ccc2nc(C)nc(O)c2c1)c1cccc(C(F)(F)F)c1	–	IC50 [8]: > 4300 nM; IC50 [7]: > 4300 nM; IC50 [9]: > 4300 nM; Ki [4]: 450 nM
3900	2000	Nc1nc2cc3c(cc2[nH]1)N(Cc1ccc(S(=O)(=O)c2ccccc2)cc1)CCC3	–	IC50 [7]: > 5000 nM; Ki [4]: 43 nM
1600	1000	C#CCN(Cc1ccc2nc(C)nc(O)c2c1)c1ccc(S(=O)(=O)c2ccccc2)cc1	1100	–
–	–	C#CCN(Cc1ccc2nc(C)nc(O)c2c1)c1ccccc1	> 10700	IC50 [8]: > 10700 nM; IC50 [9]: > 10700 nM
